One data set relates to Escherichia coli. The conditions noted are these: in vitro; cited from earlier work.
In another data set the test system is Candida albicans. The conditions noted are these: in vitro; cited from earlier work.
A further data set concerns Pseudomonas aeruginosa. The settings on record: in vitro; cited from earlier work.
Another data set deals with Staphylococcus aureus. The conditions noted are these: in vitro; cited from earlier work.
Another data set relates to Bacillus subtilis. The settings on record: in vitro; cited from earlier work.
The next data set has as its system Micrococcus luteus. The settings on record: in vitro; cited from earlier work.
The test system of data set [1] is commensal microflora in the oral cavity. The conditions noted are these: in vivo; cited from earlier work.
Another data set concerns certain microorganisms. The experiment in a line: Comparative antimicrobial experiments, hydrogen peroxide alone vs enriched extract. It counts as cell-based. The conditions noted are these: 0.05 wt % expressed as H2O2.
Data set [2] deals with L5178Y leukemia lymphoma mouse cells. The conditions noted are these: cited from earlier work.
Data set [3] relates to chloroquine-resistant strain K1 of Plasmodium falciparum. The conditions noted are these: in vitro; cited from earlier work.

`COc1cc(O)c(-c2c(C)cc(O)c3c2C(=O)c2cccc(O)c2C3=O)c(O)c1C(C)=O` [knipholone]: the antimicrobial effect result with Escherichia coli, in the data set with Candida albicans, in the data set on Pseudomonas aeruginosa, with Staphylococcus aureus, in the data set on Bacillus subtilis and with Micrococcus luteus was “ineffective” throughout.

Regarding `[H]/N=C(\N/C(=N/[H])NCCCCCCNC(=N)NC(=N)Nc1ccc(Cl)cc1)Nc1ccc(Cl)cc1` [chlorhexidine], the “effect on the commensal microflora in the oral cavity” value in [1] was “extremely harmful effect”.

Turning to `OO` [hydrogen peroxide], in data set [1], the “effect on the commensal microflora in the oral cavity” value is “extremely harmful effect”. For the same compound, the antimicrobial effect result in the data set on certain microorganisms was “did not yield the antimicrobial properties”.

For the compound `COc1cc(O)c(-c2c(C)cc(O)c3c2C(=O)c2ccc([C@H]4c5cccc(O)c5C(=O)c5c(O)cc(C)c(-c6c(O)cc(OC)c(C(C)=O)c6O)c54)c(O)c2C3=O)c(O)c1C(C)=O` [joziknipholone A], in data set [2], the “effect against L5178Y cells” value is “moderate effect”. Besides, the “effect against Plasmodium falciparum K1” value in data set [3] was “exhibited an effect”.

(Values after patent US8486459B2 (Cremer Oleo GmbH & Co. KG, priority 2011, dated 2013).)
